Tests used:
[1] = test system: BLM melanoma cells; assay: Real time cell monitoring assay (xCELLigence), BLM; format: cell-based, human; conditions: BLM, 20, 50 and 100 μM, 104 hours, vs. control
Description: FIG. 5: real time cell monitoring of BLM and SK-MEL-28 melanoma cells treated with 6-PN and 8-PN. (A) BML and SK-MEL-28 cells were treated 24 hours after seeding with different concentrations of 6-PN and 8-PN (20 μM, 50 μM and 100 μM) over a 104 hour time period. The cellular impedance was measured over the entire observation time using the xCELLigence™ SP system and is depicted by the cell index (CI). All CI-values were normalized shortly before the treatment started. […] As a positive control, Triton X-100 0.1% was used to induce cell death. Shown are the mean±SD of three independent experiments, each performed in triplicates (B, C). […]
The human melanoma cell lines BLM and SK-MEL-28 (2.5×10^3 cells/well) were seeded in 96 well plates. The cells were treated after 24 hours with different concentrations of 6-PN or 8-PN (20 μM, 50 μM and 100 μM) and monitored by measurements of electrical impedance in 15 minutes intervals for an overall time span of in total 104 hours using the xCELLigencer® SP Systems (Roche Applied Science). The cell index values were calculated using the RTCA software (1.0.0.0805). […]
The human metastatic melanoma cell lines BLM and SK-MEL-28 were treated once with rising concentrations of 6-PN or 8-PN (20 μM, 50 μM and 100 μM) and monitored continuously for an overall time span of 104 hours using a real time monitoring assay (FIG. 5A). […]

[2] = test system: BLM melanoma cells; assay: FACS cell cycle analysis (PI), BLM; format: cell-based, human; conditions: 100 μM, 48 hours
Description: (A) Cell cycle FACS analyses of PI stained BLM and SK-MEL-28 melanoma cells. 100 μM of 8-PN-induced a G2 arrest in both cells. (B) FACS analyses of BLM and SK-MEL-28 melanoma cells treated with 100 μM 6-PN or 8-PN and stained for annexin V/PI; staurosporin was used as control for apoptosis induction and DMSO as vehicle control. […] (C) BLM and SK-MEL-28 melanoma cells were treated with 100 μM of PNs; TSA, SAHA and EMSO were used as controls.
To further analyze the possibility of apoptosis induction, an extensive apoptosis assay was performed on SK-MEL-28 melanoma cells 4 hours after treatment with 100 μM 6-PN or 8-PN (FIG. 9). […] This was verified by FACS cell cycle analyses to screen for a possible increase of the sub-G1 fraction of cells (apoptotic cells) or for the induction of a G2 arrest (inhibition of proliferation). […] To further differentiate between the induction of apoptosis and/or necrosis an PI/Annexin V staining of SK-MEL-28 and BLM cells was performed 4 hours and 24 hours after the treatment with 6-PN or 8-PN; 10 μM staurosporin (6 hours treatment) was used as positive control for the induction of apoptosis; DMSO treatment was used as vehicle control. The cells were then analyzed by FACS.

[3] = test system: LOXIMVI melanoma cells; assay: Organotypic human epidermal skin reconstructs, LOXIMVI; format: cell-based; conditions: same treatment conditions (100 μM), untreated 100% MIB1 positive
Description: FIG. 11: 6-PN and 8-PN reduce proliferation and invasion of BLM and LOXIMVI melanoma cells in human epidermal skin reconstructs and induce little embryo toxicity. (A) BLM melanoma cells and keratinocytes were seeded on top of a collagen matrix populated by fibroblasts. After 16 days a keratinizing stratified epithelium with a rudimentary corium is formed. […] (B) Similar results were obtained for LOXIMVI melanoma cells under the same treatment conditions. Only nests of dead, MIB1 negative LOXIMVI cells were detected after treatment with the PNs. […]
In this assay, keratinocytes and melanoma cells are seeded on top of a collagen matrix populated by fibroblasts. […] Untreated control BLM cells (depicting 70-80% proliferation, determined by MIB1 immunhistochemistry) had formed a large tumor in the epidermal part of the reconstruct and had invaded the corium (FIG. 11A, upper panel). To determine the amount of proliferating cells, the number of MIB1 positive melanoma cells per power field in the epidermal part of the reconstruct at the epidermal-dermal border was counted (40× magnification, n=5 adjacent fields examined). Further, the number of melanoma cells invading the dermal part of the reconstruct was counted in the same high power fields. In reconstructs with untreated BLM cells, 103±15 MIB1 positive cells and 39±13 invasive cells were counted (FIG. 11A, upper panel). […]

[4] = test system: MCF7-cells; conditions: cited from earlier work
[5] = test system: PI (3) K/Akt-signal path in MCF-7 cells; conditions: MCF-7 cells in vitro; cited from earlier work

CC(C)=CCc1c(O)cc(O)c2c1OC(c1ccc(O)cc1)CC2=O (stereo not drawn) [8-PN, 5,7-Dihydroxy-2-(4-hydroxy-phenyl)-8-(3-methyl-but-2-enyl)-chroman-4-one]
normalized cell index (CI) [1]: descended over time | sub-G1 fraction (apoptotic cells) [2]: remained unaffected | cells in the G2 phase ([2]; DMSO control 30.4%): 99.6% | cell proliferation of LOXIMVI cells (MIB1) [3]: completely inhibited | apoptosis [4]: induces the apoptosis | activation of the PI (3) K/Akt-signal path [5]: directly inhibits

From patent US20160067211A1, “PHARMACEUTICAL COMPOSITION” (Eberhard Karls Universitaet Tuebingen Medizinische Fakultaet, priority 2013, published 2016)
